From patent publication US9730940B2, “Purine inhibitors of human phosphatidylinositol 3-kinase delta” (priority 2012, dated 2017) come the findings set out here.

The structures appear in SMILES notation.

The target in this experiment is PI3K-alpha (Homo sapiens (Human), UniProt P42336). Put plainly: HTRF PI3K biochemical assay, alpha isoform. The conditions noted are these: ratio PI3K-alpha IC50 value/PI3K-delta IC50 value. On the technique in general: TR-FRET usually uses a lanthanide donor and a delayed reading to cut background.
Sequence of PI3K-alpha (P42336 whole entry, looked up, canonical isoform): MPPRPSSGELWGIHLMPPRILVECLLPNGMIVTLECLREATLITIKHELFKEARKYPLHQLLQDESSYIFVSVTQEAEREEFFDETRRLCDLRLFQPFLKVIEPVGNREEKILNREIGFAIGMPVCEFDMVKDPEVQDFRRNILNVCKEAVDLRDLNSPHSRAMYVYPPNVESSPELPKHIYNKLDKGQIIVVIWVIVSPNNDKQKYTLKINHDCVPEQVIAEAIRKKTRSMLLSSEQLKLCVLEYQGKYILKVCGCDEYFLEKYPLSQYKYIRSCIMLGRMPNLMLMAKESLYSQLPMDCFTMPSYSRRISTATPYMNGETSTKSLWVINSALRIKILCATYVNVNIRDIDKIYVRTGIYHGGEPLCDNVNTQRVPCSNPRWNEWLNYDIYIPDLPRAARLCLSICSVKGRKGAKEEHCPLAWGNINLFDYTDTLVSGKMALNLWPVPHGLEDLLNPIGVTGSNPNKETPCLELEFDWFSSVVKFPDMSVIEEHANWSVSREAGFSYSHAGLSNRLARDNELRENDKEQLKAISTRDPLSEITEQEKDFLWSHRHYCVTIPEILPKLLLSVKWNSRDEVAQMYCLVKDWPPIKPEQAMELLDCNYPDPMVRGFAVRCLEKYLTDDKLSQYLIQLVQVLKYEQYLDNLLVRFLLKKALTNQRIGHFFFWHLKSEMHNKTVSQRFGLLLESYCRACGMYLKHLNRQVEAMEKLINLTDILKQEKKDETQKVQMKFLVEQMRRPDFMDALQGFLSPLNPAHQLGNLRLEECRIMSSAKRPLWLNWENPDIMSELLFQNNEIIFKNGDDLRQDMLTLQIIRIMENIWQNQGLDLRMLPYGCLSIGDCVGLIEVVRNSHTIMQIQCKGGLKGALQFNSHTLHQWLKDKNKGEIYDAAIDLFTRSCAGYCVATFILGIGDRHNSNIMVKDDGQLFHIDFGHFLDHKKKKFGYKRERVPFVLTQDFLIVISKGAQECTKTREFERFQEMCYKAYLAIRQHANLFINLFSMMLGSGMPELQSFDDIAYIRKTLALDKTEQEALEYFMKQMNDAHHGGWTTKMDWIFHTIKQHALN
Sequence of PI3K-alpha (P27986 whole entry partner, looked up, canonical isoform): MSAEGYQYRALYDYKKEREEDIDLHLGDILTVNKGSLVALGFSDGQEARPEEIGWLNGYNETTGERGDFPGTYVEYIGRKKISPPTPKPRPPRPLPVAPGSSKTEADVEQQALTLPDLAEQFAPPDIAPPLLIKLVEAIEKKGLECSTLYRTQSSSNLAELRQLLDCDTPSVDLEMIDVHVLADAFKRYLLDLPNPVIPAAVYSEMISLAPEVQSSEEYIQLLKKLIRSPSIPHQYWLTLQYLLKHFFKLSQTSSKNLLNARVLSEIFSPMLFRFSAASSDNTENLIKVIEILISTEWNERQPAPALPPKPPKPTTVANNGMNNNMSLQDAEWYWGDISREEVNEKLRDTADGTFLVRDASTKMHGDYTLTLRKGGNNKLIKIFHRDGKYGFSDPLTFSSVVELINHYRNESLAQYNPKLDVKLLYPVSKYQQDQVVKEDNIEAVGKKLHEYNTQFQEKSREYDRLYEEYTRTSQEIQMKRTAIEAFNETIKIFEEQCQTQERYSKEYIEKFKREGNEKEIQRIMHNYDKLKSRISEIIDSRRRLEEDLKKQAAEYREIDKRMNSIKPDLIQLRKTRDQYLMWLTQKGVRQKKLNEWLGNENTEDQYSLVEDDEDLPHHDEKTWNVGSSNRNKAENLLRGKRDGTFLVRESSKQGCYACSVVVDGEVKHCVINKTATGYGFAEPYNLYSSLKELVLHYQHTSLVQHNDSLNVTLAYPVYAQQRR
In the case of `CCn1ncc(-c2nc3c(O[C@H]4CCN(c5cncc(C)n5)C4)ncnc3n2C)c1C` [Compound 7-11, 8-(1-ethyl-5-methyl-1H-pyrazol-4-yl)-9-methyl-6-{[(3S)-1-(6-methylpyrazin-2-yl)pyrrolidin-3-yl]oxy}-9H-purine], the “Relative Selectivity versus PI3Kalpha” value was over 10.
As for `CCC(=O)N1CC[C@H](Oc2ncnc3c2nc(-c2ccc(C)nc2)n3C)C1` [Compound 3-8, (S)-1-(3-((9-methyl-8-(6-methylpyridin-3-yl)-9H-purin-6-yl)oxy)pyrrolidin-1-yl)propan-1-one], the “Relative Selectivity versus PI3Kalpha” value is given as over 10.
Consider `Cn1c(-c2ccc(N3CCCC3)nc2)nc2c(O[C@H]3CCN(C(=O)OC(C)(C)C)C3)ncnc21` [Compound 1-27, tert-butyl (3S)-3-{[9-methyl-8-(6-pyrrolidin-1-ylpyridin-3-yl)-9H-purin-6-yl]oxy}pyrrolidine-1-carboxylate], for which the “Relative Selectivity versus PI3Kalpha” value was over 10.
Consider `Cc1n[nH]c2ncc(-c3nc4c(O[C@H]5CCN(C(=O)OC(C)(C)C)C5)ncnc4n3C)cc12` [Compound 1-33, (S)-tert-butyl 3-((9-methyl-8-(3-methyl-1H-pyrazolo[3,4-b]pyridin-5-yl)-9H-purin-6-yl)oxy}pyrrolidine-1-carboxylate], for which the “Relative Selectivity versus PI3Kalpha” value is recorded as over 10.
Regarding `CCC(=O)N1CC[C@H](Oc2ncnc3c2nc(-c2ccc4[nH]ccc4c2)n3C)C1` [Compound 3-7, (S)-1-(3-((8-(1H-indol-5-yl)-9-methyl-9H-purin-6-yl)oxy)pyrrolidin-1-yl)propan-1-one], the “Relative Selectivity versus PI3Kalpha” value is reported as over 10.
